Data: patent US8198317B2, “Methylenedioxy phenolic compounds and their use to treat disease” (The Ohio State University Research Foundation, priority 2008, dated 2012)

How the values were obtained:
[1] = system: SREBP-2; assay: SREBP-2 precursor and mature form by western analysis in HepG2 cells; type: cell-based, human; settings: HepG2, 1 hour
Description: FIG. 5C is a graph showing in vitro time course SREBP2 activation measured by the assessment of the mature form with INV-75 in the cytoplasm of treated cells. HepG2 cells were stimulated with INV-75 (0.1 mM) for four hours and the mature and precursor forms of SREBP2 was measured by western blot analysis. A total of three experiments were performed. *, p<0.01 by ANOVA compared to vehicle. The corresponding western blot is depicted on the right. Time is in hours on the right.
FIG. 5D is a graph showing dose dependent effects of INV-75 on SREBP2 activation assessed with mature form INV-75. HepG2 cells were stimulated with multiple concentrations of INV-75 for 1 hour and the mature and precursor forms of SREBP2 was measured by western blot analysis. A total of three experiments were performed. *, p<0.01 by ANOVA compared to vehicle. Dose of INV-75 is log molar concentration.
A family of transcription factors designated SREBP (sterol regulatory element binding proteins) regulate synthesis of cholesterol and fatty acids. […] The time course with this dose and dose dependence was analyzed. Next we assessed the expression of both precursor and mature form of SREBP-2 in the cytoplasm by western analysis. Both time course and dose dependence of mature form of SREBP-2 was analyzed.

[2] = system: LDL receptor; assay: LDL receptor mRNA by RT-PCR in HepG2 cells; type: cell-based, human; settings: HepG2, time dependent and dose dependent
Description: FIG. 5E is graph showing time course of low density lipoprotein receptor (LDLR) messenger RNA (mRNA) with INV-75 assessed by quantitative real time polymerase chain reaction (RT-PCR). A total of three experiments were performed. *, p<0.01 by ANOVA compared to vehicle.
FIG. 5F is a graph showing dose dependency experiments of low density lipoprotein receptor (LDLR) messenger RNA (mRNA) measurement with INV-75. HepG2 cells were stimulated with multiple concentrations of INV-75 for 1 hour and LDL mRNA expression was measured by quantitative real time polymerase chain reaction (RT-PCR). A total of three experiments were performed. *, p<0.01 by ANOVA compared to vehicle. Dose of INV-75 is log molar concentration.
Next we investigated the effect of INV-75 in regulating LDL receptor expression in the same cells using a similar protocol to assess dose and temporal dependence. FIGS. 5E and 5F depict the time course of LDL receptor expression and dose dependence in response to INV-75. […] INV-75 had no effects on SREBP-1 regulation (data not shown). Simultaneously multiple genes involved in cholesterol synthesis and regulation, apolipoprotein gene expression and expression of PCSK9 (Proprotein convertase subtilisin/kexin type 9) was tested. […]

[3] = system: C57Bl/6 mice; assay: SREBP-2, LDLR and LDL in vivo in mice; set-up: species or system mouse; settings: 20 mg/kg/day intraperitoneally, two weeks
Description: To study the effect of INV-75 on SREBP activity in vivo experiment was performed as follows: C57bl/6 mice (6/group) were intraperitoneally injected with INV-75 (20 mg/kg/day, for two weeks). The binding activity of SREBP2 in nuclear proteins of liver homogenates was measured by electrophoretic migration shift assay (EMSA). Simultaneously multiple genes involved in cholesterol synthesis and regulation, apolipoprotein gene expression and expression of PCSK9 (Proprotein convertase subtilisin/kexin type 9) were also studied in the liver. PCSK9 is known to regulate LDL receptor expression by binding to the epidermal growth factor-like repeat A (EGF-A) domain of the low-density lipoprotein receptor (LDLR), inducing LDLR degradation.

[4] = system: Patient; assay: Treatment of a patient with chronic myocardial infarction (Example 19); type: in vivo, human; settings: 1.0 to 100 mg/kg with standard therapy
Description: A person with a prior history of a heart attack (myocardial infarction) 1 year ago presents for evaluation. They are asymptomatic. The patient is administered a composition comprising an effective amount of 3,4-Methylenedioxy 6-nitro phenyl lipoate (INV-7465) (1.0 to 100 mg/kg). Alternate therapies include, 3,4-methylenedioxy phenyl acetate (INV 73); 3,4-methylenedioxy-6-nitrophenol (INV 74); 3,4-methylenedioxy-6-nitrophenyl acetate (INV 75); 3,4-Methylenedioxy 6-nitro phenyl lipoate (INV-7465) or 3,4-Methylenedioxy phenyl lipoate (INV-7065). The composition is administered in conjunction with therapy such as aspirin, a drug to reduce the tendency of platelet aggregation, such as clopidogrel bisulfate, a statin, ezetimibe, an angiotensin converting enzyme inhibitor or angiotensin receptor blocker, and other anti-hypertensive agents such as beta-blockers, using dosages known to one of ordinary skill in the art. Patient notes added benefit in total and LDL cholesterol and a reduction in inflammatory markers such as C reactive protein.

SMILES | dose having an effect in increasing the mature form of SREBP-2 [1] [nM] | LDL receptor expression [2] | LDL [3] | LDL receptor expression in liver (real-time RT-PCR, western blot) [3] | SREBP2 activation in liver (EMSA) [3] | other lipoproteins [3] | inflammatory markers such as C reactive protein [4] | total and LDL cholesterol [4]
CC(=O)Oc1cc2c(cc1[N+](=O)[O-])OCO2 [INV-75, 3,4-methylenedioxy-6-nitrophenyl acetate] | ≥ 10 | increases | significantly lowered | increase | dramatically activated | not other lipoproteins | – | –
O=C(CCCCC1CCSS1)Oc1cc2c(cc1[N+](=O)[O-])OCO2 (centres unmarked) [INV-7465, 3,4-Methylenedioxy 6-nitro phenyl lipoate] | – | – | – | – | – | – | reduction | added benefit
